The values that follow come from ChEMBL document CHEMBL5705898 (Proc Natl Acad Sci U S A, 2014).

Values after ≈ are worked out from the molar mass of the structure shown.

The target in data set [1] is Tyrosine-protein kinase Fyn (Homo sapiens) (UniProt P06241). As to the kind of experiment: Inhibition of human Fyn kinase at 10 uM relative to control.
Data set [2] deals with 5-hydroxytryptamine receptor 6 (Homo sapiens) (UniProt P50406). Description: Inhibition of human 5-HT6 receptor at 10 uM relative to control.
Data set [3] deals with Glucocorticoid receptor (Homo sapiens) (UniProt P04150). As to the kind of experiment: Inhibition of human GR at 10 uM relative to control.
Data set [4] has as its target Sodium-dependent serotonin transporter (Homo sapiens) (UniProt P31645). Description: Inhibition of human 5-HT transporter at 10 uM relative to control.
The target of data set [5] is Adenosine receptor A1 (Homo sapiens) (UniProt P30542). Description: Inhibition of human A1 receptor at 10 uM relative to control.
Data set [6] concerns the target Prostaglandin G/H synthase 1 (Homo sapiens) (UniProt P23219). Description: Inhibition of human COX1 at 10 uM relative to control.
Data set [7] concerns the target Adenosine receptor A2a (Homo sapiens) (UniProt P29274). As to the kind of experiment: Inhibition of human A2A receptor at 10 uM relative to control.
The target of data set [8] is Prostaglandin G/H synthase 2 (Homo sapiens) (UniProt P35354). Description: Inhibition of human COX2 at 10 uM relative to control.
Data set [9] deals with Tyrosine-protein kinase Lyn (Homo sapiens) (UniProt P07948). Description: Inhibition of human Lyn A kinase at 10 uM relative to control.
For the next data set, the system named is MCF7. Description: Cytotoxicity against human MCF7 cells assessed as reduction in cell viability at <50 uM by alamar blue assay. The note with it: mcf7, 50 µM. It is filed as toxicity, cell-based.
Data set [10] is described as follows: Aqueous solubility of compound. The class given is physicochemical. To be noted: buffer.
For data set [11], the target named is Histamine H3 receptor (Homo sapiens) (UniProt Q9Y5N1). Description: Inhibition of human H3 receptor at 10 uM relative to control.
The target in data set [12] is Alpha-2A adrenergic receptor (Homo sapiens) (UniProt P08913). As to the kind of experiment: Inhibition of human alpha 2A receptor at 10 uM relative to control.
Data set [13] concerns the target Alpha-1A adrenergic receptor (Homo sapiens) (UniProt P35348). As to the kind of experiment: Inhibition of human alpha 1A receptor at 10 uM relative to control.
In data set [14] the target is Calcium/calmodulin-dependent protein kinase type II subunit alpha (Homo sapiens) (UniProt Q9UQM7). Description: Inhibition of human CaMK2alpha at 10 uM relative to control.
The target in data set [15] is Histamine H2 receptor (Homo sapiens) (UniProt P25021). As to the kind of experiment: Inhibition of human H2 receptor at 10 uM relative to control.
Data set [16] deals with T1, Histone-lysine N-methyltransferase SETD7 (Homo sapiens, UniProt Q8WTS6).
T1 sequence (Q8WTS6 whole entry): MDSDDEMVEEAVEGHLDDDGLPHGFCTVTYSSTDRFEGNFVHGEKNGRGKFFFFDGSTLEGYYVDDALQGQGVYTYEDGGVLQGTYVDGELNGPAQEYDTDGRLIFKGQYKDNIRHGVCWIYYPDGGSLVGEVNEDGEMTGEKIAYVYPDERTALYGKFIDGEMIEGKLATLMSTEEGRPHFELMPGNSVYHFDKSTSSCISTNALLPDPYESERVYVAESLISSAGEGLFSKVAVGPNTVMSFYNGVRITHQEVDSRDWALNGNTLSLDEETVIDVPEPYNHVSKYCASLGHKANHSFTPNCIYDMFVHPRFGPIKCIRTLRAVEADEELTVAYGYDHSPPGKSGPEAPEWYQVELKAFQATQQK
As to the kind of experiment: Inhibition of wildtype full length human SETD7 (1 to 366 residues) expressed in Escherichia coli BL21 (DE3) V2R-pRARE using biotinylated H3 (1-25) peptide as substrate incubated for 1 hrs in presence of 3H-SAM by radioactivity based assay.

Data set [17] addresses cGMP-specific 3',5'-cyclic phosphodiesterase (Homo sapiens) (UniProt O76074). Description: Inhibition of human PDE5 at 10 uM relative to control.
The target of data set [18] is Substance-P receptor (Homo sapiens) (UniProt P25103). Description: Inhibition of human NK1 receptor at 10 uM relative to control.
Sequence of Substance-P receptor (Homo sapiens) (P25103 whole entry): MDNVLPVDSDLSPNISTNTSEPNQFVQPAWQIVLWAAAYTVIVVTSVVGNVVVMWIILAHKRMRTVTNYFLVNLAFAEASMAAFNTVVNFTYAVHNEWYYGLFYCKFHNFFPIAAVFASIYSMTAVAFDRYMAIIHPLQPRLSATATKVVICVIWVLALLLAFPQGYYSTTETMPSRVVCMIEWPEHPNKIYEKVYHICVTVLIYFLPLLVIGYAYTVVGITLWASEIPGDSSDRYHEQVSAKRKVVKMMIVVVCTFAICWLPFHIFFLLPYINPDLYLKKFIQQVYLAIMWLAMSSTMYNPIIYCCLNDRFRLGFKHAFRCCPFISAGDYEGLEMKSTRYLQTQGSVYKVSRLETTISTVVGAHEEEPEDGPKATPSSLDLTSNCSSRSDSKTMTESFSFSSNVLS

Sequence of Tyrosine-protein kinase Lyn (Homo sapiens) (P07948 2-512 limits assumed): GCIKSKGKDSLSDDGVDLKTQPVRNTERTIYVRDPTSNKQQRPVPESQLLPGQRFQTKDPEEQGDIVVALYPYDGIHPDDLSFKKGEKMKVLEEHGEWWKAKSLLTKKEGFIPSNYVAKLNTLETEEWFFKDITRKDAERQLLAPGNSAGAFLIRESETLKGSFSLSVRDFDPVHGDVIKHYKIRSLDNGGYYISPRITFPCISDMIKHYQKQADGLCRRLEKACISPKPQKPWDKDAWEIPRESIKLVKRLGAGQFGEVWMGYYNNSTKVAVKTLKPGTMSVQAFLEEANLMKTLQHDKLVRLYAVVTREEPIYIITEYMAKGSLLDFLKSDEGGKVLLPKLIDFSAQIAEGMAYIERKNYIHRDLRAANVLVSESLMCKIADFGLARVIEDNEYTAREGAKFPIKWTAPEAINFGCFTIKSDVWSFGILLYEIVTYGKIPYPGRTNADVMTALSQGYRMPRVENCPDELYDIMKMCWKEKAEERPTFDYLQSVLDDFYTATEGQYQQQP
Sequence of Sodium-dependent serotonin transporter (Homo sapiens) (P31645 whole entry, looked up): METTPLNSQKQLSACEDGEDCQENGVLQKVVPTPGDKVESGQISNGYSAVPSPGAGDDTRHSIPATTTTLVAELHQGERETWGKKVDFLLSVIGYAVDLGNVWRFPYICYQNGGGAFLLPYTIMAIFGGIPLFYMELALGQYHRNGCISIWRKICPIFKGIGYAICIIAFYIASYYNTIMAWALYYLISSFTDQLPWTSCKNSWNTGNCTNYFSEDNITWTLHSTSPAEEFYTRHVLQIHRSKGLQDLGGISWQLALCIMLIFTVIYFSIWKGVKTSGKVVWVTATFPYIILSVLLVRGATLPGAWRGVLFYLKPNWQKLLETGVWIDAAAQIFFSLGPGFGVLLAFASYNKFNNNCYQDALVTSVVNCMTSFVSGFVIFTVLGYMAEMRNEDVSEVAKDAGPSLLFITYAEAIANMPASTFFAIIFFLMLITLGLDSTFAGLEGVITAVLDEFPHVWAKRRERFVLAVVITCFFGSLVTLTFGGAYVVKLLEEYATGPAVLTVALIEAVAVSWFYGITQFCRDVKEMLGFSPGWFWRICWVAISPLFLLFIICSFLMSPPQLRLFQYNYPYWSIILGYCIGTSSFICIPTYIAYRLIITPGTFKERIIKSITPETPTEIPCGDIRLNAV
Sequence of Alpha-1A adrenergic receptor (Homo sapiens) (P35348 whole entry): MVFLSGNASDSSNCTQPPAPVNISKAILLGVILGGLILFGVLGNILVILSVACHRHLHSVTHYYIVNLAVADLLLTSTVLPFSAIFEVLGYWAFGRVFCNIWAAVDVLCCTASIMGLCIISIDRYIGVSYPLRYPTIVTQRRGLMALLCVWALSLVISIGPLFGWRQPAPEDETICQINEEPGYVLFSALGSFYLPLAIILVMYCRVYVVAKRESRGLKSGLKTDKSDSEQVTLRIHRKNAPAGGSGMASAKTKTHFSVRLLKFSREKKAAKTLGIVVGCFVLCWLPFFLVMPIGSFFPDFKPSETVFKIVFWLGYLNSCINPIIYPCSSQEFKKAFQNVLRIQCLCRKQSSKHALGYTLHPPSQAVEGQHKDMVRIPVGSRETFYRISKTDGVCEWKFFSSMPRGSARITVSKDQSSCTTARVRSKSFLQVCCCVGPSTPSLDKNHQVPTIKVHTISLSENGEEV
Sequence of Histamine H2 receptor (Homo sapiens) (P25021 whole entry): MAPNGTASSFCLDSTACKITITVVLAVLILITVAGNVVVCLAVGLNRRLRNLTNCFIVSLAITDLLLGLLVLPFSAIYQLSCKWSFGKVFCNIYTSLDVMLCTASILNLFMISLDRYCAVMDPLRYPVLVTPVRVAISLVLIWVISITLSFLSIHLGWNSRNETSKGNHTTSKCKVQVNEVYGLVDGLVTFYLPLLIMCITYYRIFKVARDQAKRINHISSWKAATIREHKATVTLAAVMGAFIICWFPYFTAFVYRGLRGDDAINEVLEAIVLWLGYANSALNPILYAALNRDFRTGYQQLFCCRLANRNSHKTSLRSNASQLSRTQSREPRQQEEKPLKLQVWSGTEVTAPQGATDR
Sequence of Alpha-2A adrenergic receptor (Homo sapiens) (P08913 whole entry): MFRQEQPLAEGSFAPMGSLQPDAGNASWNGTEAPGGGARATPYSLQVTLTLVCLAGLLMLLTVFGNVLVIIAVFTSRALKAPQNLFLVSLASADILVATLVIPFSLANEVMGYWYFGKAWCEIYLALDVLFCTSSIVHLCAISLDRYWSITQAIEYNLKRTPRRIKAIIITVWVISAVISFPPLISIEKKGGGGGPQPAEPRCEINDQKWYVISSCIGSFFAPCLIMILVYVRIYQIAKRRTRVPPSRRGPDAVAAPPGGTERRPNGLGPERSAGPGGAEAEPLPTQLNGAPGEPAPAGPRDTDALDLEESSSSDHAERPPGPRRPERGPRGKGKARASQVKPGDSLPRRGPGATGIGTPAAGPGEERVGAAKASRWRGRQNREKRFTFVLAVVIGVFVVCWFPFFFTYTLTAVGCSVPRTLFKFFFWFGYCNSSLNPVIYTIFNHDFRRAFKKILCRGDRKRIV
Sequence of Glucocorticoid receptor (Homo sapiens) (P04150 whole entry): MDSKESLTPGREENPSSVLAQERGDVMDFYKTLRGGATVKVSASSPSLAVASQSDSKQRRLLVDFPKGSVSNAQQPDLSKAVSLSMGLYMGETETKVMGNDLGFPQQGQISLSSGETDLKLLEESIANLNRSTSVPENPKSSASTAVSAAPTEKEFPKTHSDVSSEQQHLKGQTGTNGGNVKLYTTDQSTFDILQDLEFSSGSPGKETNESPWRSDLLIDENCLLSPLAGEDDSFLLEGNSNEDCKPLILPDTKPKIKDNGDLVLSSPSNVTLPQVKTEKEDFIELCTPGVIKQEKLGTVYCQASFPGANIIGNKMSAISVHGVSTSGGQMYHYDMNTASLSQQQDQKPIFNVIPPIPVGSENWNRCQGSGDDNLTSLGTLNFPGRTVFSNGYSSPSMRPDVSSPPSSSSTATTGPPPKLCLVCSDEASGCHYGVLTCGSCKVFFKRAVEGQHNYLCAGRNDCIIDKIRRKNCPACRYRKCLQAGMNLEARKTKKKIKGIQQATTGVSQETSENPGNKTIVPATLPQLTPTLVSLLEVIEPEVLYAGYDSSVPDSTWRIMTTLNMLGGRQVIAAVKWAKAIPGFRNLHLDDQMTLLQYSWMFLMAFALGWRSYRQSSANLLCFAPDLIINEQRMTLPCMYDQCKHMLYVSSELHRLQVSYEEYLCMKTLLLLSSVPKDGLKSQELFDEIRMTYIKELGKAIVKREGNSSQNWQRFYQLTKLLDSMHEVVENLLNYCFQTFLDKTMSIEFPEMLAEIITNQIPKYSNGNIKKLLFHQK
Sequence of Adenosine receptor A2a (Homo sapiens) (P29274 whole entry): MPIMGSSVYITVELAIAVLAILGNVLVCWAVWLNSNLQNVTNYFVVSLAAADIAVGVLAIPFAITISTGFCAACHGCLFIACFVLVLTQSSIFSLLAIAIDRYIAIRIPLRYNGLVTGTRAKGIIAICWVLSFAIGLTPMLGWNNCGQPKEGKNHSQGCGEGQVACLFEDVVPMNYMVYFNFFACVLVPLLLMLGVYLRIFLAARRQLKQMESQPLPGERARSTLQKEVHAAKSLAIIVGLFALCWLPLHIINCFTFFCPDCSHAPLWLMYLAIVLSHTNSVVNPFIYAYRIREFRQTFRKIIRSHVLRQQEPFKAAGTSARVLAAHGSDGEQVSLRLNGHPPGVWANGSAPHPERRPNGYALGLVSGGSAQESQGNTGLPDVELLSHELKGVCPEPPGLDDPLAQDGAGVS
Sequence of Calcium/calmodulin-dependent protein kinase type II subunit alpha (Homo sapiens) (Q9UQM7 whole entry): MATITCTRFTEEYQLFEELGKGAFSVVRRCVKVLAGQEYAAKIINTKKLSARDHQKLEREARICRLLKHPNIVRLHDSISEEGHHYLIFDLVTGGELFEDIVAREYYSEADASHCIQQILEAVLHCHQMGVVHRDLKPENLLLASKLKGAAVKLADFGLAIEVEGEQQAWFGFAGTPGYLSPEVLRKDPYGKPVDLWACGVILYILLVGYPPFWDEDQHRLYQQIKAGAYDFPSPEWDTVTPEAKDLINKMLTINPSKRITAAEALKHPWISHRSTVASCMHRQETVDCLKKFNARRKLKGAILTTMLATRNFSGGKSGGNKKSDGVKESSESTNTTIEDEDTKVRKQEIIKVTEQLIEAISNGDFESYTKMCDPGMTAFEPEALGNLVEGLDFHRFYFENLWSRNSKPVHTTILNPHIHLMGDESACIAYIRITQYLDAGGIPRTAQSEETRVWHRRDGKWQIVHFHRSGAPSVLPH
Sequence of Histamine H3 receptor (Homo sapiens) (Q9Y5N1 whole entry): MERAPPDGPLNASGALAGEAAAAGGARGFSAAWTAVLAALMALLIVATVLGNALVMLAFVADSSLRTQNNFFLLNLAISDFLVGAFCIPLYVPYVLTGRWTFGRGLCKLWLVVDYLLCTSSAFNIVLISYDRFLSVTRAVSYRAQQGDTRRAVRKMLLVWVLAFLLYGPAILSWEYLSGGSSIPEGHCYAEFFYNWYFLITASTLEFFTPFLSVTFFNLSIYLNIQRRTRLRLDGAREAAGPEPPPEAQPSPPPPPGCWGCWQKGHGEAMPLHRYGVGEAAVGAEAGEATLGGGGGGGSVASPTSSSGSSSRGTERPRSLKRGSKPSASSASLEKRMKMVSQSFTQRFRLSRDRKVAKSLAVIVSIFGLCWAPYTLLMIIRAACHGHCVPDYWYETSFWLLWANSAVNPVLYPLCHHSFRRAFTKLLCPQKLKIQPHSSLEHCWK

In the case of `O=C([C@@H](Cc1cccc(C(F)(F)F)c1)NS(=O)(=O)c1cc(F)c2c(c1)CCNC2)N1CCCC1`, the inhibition (as a rule, the change of the read-out against control, counted positive when it falls) was 1% in data set [1]; -8% in data set [2]; 5% in [3]; 9% in data set [4]; -10% in [5]; 4% in data set [6]. Moreover, the inhibition is 18% in data set [7]; -8% in [8]; 14% in [9]; -1% in data set [11]; 15% in data set [12]; -3% in data set [13]. Moreover, the inhibition amounted to 6% in [14], 0% in data set [15], 1% in [17] and 43% in [18]. In the data set with MCF7, the Activity result is “Non-Toxic”. The amount in solution in data set [10] (solubility) came to 285 µM (≈ 142 µg/mL). For the same compound, the IC50 (commonly the midpoint of a concentration-inhibition curve) in data set [16] was 2 nM.
